IC50 data for 2 molecules are collected here from patent US9447060B2, “Small molecule modulators of pRb inactivation” (The Wistar Institute of Anatomy and Biology, priority 2011, dated 2016).

The target in the assay is T1, GST-pRbABC/6×His-HPV16-E7CR2-3 complex (Homo sapiens, UniProt P06400).
T1 construct: made in house; host or cells: pRb: Sf9; E7: E. coli BL21(DE3)
T1 sequence (P06400 376-928): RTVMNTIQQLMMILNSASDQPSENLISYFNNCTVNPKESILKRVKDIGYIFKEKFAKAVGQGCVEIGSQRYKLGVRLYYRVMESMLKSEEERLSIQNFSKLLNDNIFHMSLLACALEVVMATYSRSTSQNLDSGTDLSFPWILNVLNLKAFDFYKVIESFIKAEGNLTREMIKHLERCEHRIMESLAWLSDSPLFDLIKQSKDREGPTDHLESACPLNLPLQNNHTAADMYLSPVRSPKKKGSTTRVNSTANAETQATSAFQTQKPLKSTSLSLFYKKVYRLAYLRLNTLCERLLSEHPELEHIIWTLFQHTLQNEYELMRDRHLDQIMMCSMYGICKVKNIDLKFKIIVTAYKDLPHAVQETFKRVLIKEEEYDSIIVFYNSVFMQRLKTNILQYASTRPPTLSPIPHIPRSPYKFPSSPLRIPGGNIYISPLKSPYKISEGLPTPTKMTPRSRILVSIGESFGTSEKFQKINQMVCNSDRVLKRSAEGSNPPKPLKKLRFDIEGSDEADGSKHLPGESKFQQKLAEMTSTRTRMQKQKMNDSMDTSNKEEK
Briefly: ELISA: disruption of pRb/HPV16-E7 complex. It counts as binding. The settings on record: disruption of pRb/viral oncoprotein complex; 500 nM 16E7. The protocol:
An ELISA assay was utilized with modifications such that the amount of 6×His-HPV16-E7CR2-3 remaining bound to the partner protein on the plate could be measured. The compounds identified in Example 2 were purchased (Lankenau Institute for Medical Research) as powders. Their purity was verified by LC/MS and their structures by NMR. IC50 values were then measured for (i) the compounds identified in Example 1, (ii) the compounds prepared according to Examples 3-5, (iii) 2-phenyl-4-methyl-1,2,4-thiadiazolidin-3,5-dione (available from Molport, Latvia), and (iv) 4-benzyl-2-methyl-1,2,4-thiadiazolidin-3,5-dione (TDZD-8; Catalog No. T8325-5MG, Sigma) using the same ELISA-based assay as described for the high-throughput screen, except that the assay was performed manually in 96-well format and so all volumes used were double those from 384-well format.
All compounds were solubilized in DMSO (50 mM) and diluted for use in the ELISA-based assay at a final DMSO concentration of less than 5%. Ten-fold dilutions of thiadiazolin-3,5-dione compound (starting at 100 μM) were added to a mixture containing GST-pRbABC and 6×His-HPV16E7CR2-3. The amount of E7 remaining was determined by adding a primary anti-His antibody. The concentrations of the compounds in the IC50 experiment spanned the range of enzyme activity from no inhibition to complete inhibition. Three independent IC50 measurements were performed for each compound and the average and standard deviation values are reported. All data was imported into the GraphPad® Software (Prism) for IC50 determination. To calculate the IC50 values, the dose-response curves were fit to one-site (Hill slope=1) sigmoidal-dose-response curves.
In general terms: An ELISA detects its analyte on a solid surface through an enzyme-linked reagent.

The IC50 is the concentration at which inhibition is half-maximal. A lower IC50 goes with greater potency.

The molecule `Cc1ccccc1-n1sc(=O)n(C)c1=O` [Compound 3] showed an IC50 of 0.5 ± 1.5 µM.

Consider `Cc1cc(Cl)ccc1-n1sc(=O)n(C(C)C)c1=O` [Compound 4], for which the IC50 stood at 4.5 ± 1.5 µM.
